Like-named read-outs stand apart in the source and are kept apart here.
How the values were obtained:
tubulin = biological target: T1, tubulin (Sus scrofa, UniProt P02550+P02554); assay: Evaluation of the inhibition of tubulin polymerization (turbidimetry); type: biochemical, pig; settings: tubulin 10 μm (1 mg/ml), 37° C., turbidity at 350 nm; concentration that inhibits the rate of polymerization by 50%; read-out: Inhibition of tubulin polymerization IC 50 (μm)
T1 construct: Tubulin is purified from pig brain according to published methods; from tissue; host or cells: pig brain
T1 sequence (P02550 whole entry): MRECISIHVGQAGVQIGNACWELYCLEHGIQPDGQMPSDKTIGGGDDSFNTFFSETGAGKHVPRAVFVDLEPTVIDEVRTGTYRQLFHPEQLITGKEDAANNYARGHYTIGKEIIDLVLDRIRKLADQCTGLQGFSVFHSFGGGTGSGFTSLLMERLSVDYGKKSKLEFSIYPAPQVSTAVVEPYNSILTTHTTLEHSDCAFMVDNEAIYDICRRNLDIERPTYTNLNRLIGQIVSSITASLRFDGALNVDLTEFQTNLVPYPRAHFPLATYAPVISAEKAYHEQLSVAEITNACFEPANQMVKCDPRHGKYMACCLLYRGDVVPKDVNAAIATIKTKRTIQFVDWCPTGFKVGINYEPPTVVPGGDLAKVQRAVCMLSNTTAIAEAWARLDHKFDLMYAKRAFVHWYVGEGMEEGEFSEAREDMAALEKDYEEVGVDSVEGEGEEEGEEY
T1 sequence (P02554 whole entry): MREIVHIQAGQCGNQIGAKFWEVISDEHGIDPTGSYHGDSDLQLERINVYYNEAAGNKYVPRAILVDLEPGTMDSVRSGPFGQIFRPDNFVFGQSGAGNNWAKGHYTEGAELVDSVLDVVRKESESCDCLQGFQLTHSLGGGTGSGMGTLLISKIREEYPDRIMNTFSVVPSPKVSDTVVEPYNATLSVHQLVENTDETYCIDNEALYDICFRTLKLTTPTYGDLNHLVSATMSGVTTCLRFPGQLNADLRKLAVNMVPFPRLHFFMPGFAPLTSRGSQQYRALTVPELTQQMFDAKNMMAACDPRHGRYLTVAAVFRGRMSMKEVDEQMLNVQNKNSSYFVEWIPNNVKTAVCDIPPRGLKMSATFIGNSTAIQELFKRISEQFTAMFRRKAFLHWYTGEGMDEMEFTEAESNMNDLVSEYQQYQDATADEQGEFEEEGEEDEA
Protocol: Tubulin is purified from pig brain according to published methods (Shelanski et al., 1973, Proc. Natl. Acad. Sci. USA, 70, 765-768. Weingarten et al., 1975, Proc. Natl. Acad. Sci. USA, 72, 1858-1862). Briefly, the brains are ground and centrifuged in an extraction buffer. The tubulin contained in the supernatant of the extract undergoes two successive cycles of polymerization at 37° C. and depolymerization at 4° C., before being separated from the MAPs (Microtubule Associated Proteins) by chromatography on a phosphocellulose P11 column (Whatman). The tubulin thus isolated is more than 95% pure. It is stored in a buffer known as RB/2 30% glycerol, the composition of which is 50 mM MES-NaOH [2-(N-morpholino)ethanesulfonic acid], pH 6.8; 0.25 mM MgCl2; 0.5 mM EGTA; 30% glycerol (v/v), 0.2 mM GTP (guanosine-5′-triphosphate).
The polymerization of tubulin to microtubules is monitored by turbidimetry as follows: the tubulin is adjusted to a concentration of 10 μm (1 mg/ml) in RB/2 30% glycerol buffer to which 1 mM GTP and 6 mM MgCl2 are added. The polymerization is triggered by an increase in temperature from 6° C. to 37° C. in a cuvette with an optical path length of 1 cm, placed in a UVIKON 931 spectrophotometer (Kontron) equipped with a thermostatically maintained cuvette holder. The increase in the turbidity of the solution is monitored at 350 nm.
The products are dissolved at 10 mM in DMSO and added at variable concentrations (0.5 to 10 μm) to the tubulin solution before polymerization. The IC50 value is defined as the concentration of product that inhibits the rate of polymerization by 50%.

HCT116 cells = assay: Inhibition of proliferation of the human colon tumor line HCT116 ([14C]-thymidine incorporation); type: cell-based; settings: 48 hours at 37° C., read-out: Inhibition of HCT116 proliferation IC 50 (μm)
Protocol: The proliferation of HCT116 cells is evaluated by measuring the incorporation of [^14C]-thymidine in the following manner. The HCT 116 cells (obtained from the ATCC) are cultured in a DMEM medium (Gibco) containing 10% fetal calf serum and antibiotics (1% penicillin, 1% streptomycin). To perform the proliferation test, the cells are inoculated in cytostar 96-well microplates (Amersham), at a rate of 5000 cells per well. [^14C]-thymidine (0.1 μCi/well) and the products to be evaluated are then added. Variable concentrations of products up to 10 μm are used; the DMSO (solvent used to dissolve the products) should not exceed 0.5% in the medium. 48 hours after incubation at 37° C., the radioactivity incorporated into the cells is measured by counting the plate in a TRI-LUX counter (Wallac). The IC50 is defined as the concentration of product that reduces the radioactivity by 50% compared with an untreated control. A product whose IC50 is less than 3 μm is considered cytotoxic.

Row | Structure (SMILES) | IC50 (tubulin) [nM] | IC50 (HCT116 cells; Homo sapiens, HCT-116, 48 h) [nM] | IC50 (HCT116 cells) [nM]
1 | Cc1cc(C(=O)N2CCN(c3ccc(C)c(C)c3)CC2)n(-c2ccccc2F)n1 [3/86] | 12500 | 385 | –
2 | Cc1cc(C(=O)N2CCN(c3ccc(F)cc3)CC2)n(-c2ccccc2)n1 [3/41] | 6500 | 294 | –
3 | COc1ccccc1N1CCN(C(=O)c2cc(C)nn2-c2ccccc2F)CC1 [3/144] | – | – | 255
4 | Cc1cc(C(=O)N2CCN(c3ccnc4ccccc34)CC2)n(-c2ccccc2)n1 [Example E17, (5-Methyl-2-phenyl-2H-pyrazol-3-yl)(4-quinolin-4-ylpiperazin-1-yl)methanone] | 1500 | 8.5 | –
5 | Cc1ccc(-n2nc(C)cc2C(=O)N2CCN(c3cccc(Cl)c3Cl)CC2)cc1 [3/132] | 20000 | 3100 | –
6 | Cc1cc(C(=O)N2CCN(c3cccc(Cl)c3)CC2)n(-c2ccccn2)n1 [Example E22, [4-(3-Chlorophenyl)piperazin-1-yl](5-methyl-2-pyrid-2-yl-2H-pyrazol-3-yl)-methanone] | 1900 | 6.4 | –
7 | Cc1cc(C(=O)N2CCN(c3cccc4ccccc34)CC2)n(-c2ccccc2)n1 [3/13] | 6000 | 466 | –
8 | O=C(c1cc(OCc2ccccc2)nn1-c1ccccn1)N1CCN(c2cccc(Cl)c2)CC1 [Example E61, (5-Benzyloxy-2-pyrid-2-yl-2H-pyrazol-3-yl)[4-(3-chlorophenyl)piperazin-1-yl]methanone] | 2300 | 6090 | –
9 | O=C(c1cc(Br)nn1-c1ccccc1)N1CCN(c2cccc(Cl)c2)CC1 [Example E65, (5-Bromo-2-phenyl-2H-pyrazol-3-yl)[4-(3-chlorophenyl)piperazin-1-yl]-methanone] | 1700 | 10.6 | –
10 | COc1ccccc1N1CCN(C(=O)c2cc(C)nn2-c2ccccc2)CC1 [3/7] | 5600 | 40 | –
11 | Cc1cc(C(=O)N2CCN(c3cccc(Cl)c3)CC2)n(-c2ccccc2F)n1 [3/37] | 20000 | 1440 | –
12 | Cc1cc(C(=O)N2CCN(c3cccc(Cl)c3)CC2)n(-c2nccs2)n1 [Example E37, [4-(3-Chlorophenyl)piperazin-1-yl](5-methyl-2-thiazol-2-yl-2H-pyrazol-3-yl)-methanone] | 2000 | 37.7 | –
13 | O=C(c1cc(-c2ccccc2)nn1-c1ccccc1)N1CCN(c2cccc(Cl)c2)CC1 [Example E66, [4-(3-Chlorophenyl)piperazin-1-yl](2,5-diphenyl-2H-pyrazol-3-yl)methanone] | 3700 | 1830 | –
14 | CSc1ccccc1N1CCN(C(=O)c2cc(C)nn2-c2cccc(C)c2)CC1 [3/51] | 2000 | 37 | –
15 | COc1ccccc1N1CCN(C(=O)c2cc(C)nn2-c2ccccc2F)CC1 [3/85] | – | 189 | –
16 | Cc1cc(C(=O)N2CCN(c3ccc(Cl)c(Cl)c3)CC2)n(-c2ccccc2)n1 [3/110] | – | 299 | –
17 | O=C(c1cc(CSc2ccccc2)nn1-c1ccccc1)N1CCN(c2cccc(Cl)c2)CC1 [Example E102, [4-(3-Chlorophenyl)piperazin-1-yl](2-phenyl-5-phenylsulfanylmethyl-2H-pyrazol-3-yl)methanone] | 18000 | – | –
18 | CCOc1ccccc1N1CCN(C(=O)c2cc(C)nn2-c2cccc(C)c2)CC1 [3/115] | 20000 | – | –

Results, then the compound that gave them:

Row | IC50 (tubulin) [nM] | IC50 (HCT116 cells; Homo sapiens, HCT-116, 48 h) [nM] | IC50 (HCT116 cells) [nM] | Structure (SMILES)
19 | 2500 | 111 | – | COc1cccc(N2CCN(C(=O)c3cc(C)nn3-c3ccc(Cl)cc3)CC2)c1 [3/73]
20 | – | 734 | – | COc1ccc(-n2nc(C)cc2C(=O)N2CCN(c3cccc(Cl)c3)CC2)cc1 [3/39]
21 | 5000 | 139 | – | Cc1cccc(-n2nc(C)cc2C(=O)N2CCN(c3ccc4c(c3)OCCO4)CC2)c1 [3/56]
22 | 900 | 2 | – | COc1cc(OC)cc(N2CCN(C(=O)c3cc(/C=N/O)nn3-c3ccccc3)CC2)c1 [Example E94, 5-[4-(3,5-Dimethoxyphenyl)piperazine-1-carbonyl]-1-phenyl-1H-pyrazole-3-carboxaldehyde oxime E]
23 | 6000 | 224 | – | Cc1cccc(N2CCN(C(=O)c3cc(C)nn3-c3ccccc3F)CC2)c1 [3/16]
24 | 1500 | 6.1 | – | Cc1cccc(N2CCN(C(=O)c3cc(C)nn3-c3cccc(C)c3)CC2)c1 [3/50]
25 | 2000 | 4 | – | COc1cccc(N2CCN(C(=O)c3cc(C)nn3-c3ccccc3F)CC2)c1 [3/15]
26 | 2090 | 50.2 | – | Cc1cc(C(=O)N2CCN(c3cccc(Cl)c3)CC2)n(-c2ccc(F)cc2F)n1 [Example E42, [4-(3-Chlorophenyl)piperazin-1-yl][2-(2,4-difluorophenyl)-5-methyl-2H-pyrazol-3-yl]methanone]
27 | 3500 | 295 | – | COc1cccc(-n2nc(C)cc2C(=O)N2CCN(c3ccc(Cl)c(Cl)c3)CC2)c1 [3/81]
28 | 3000 | 83 | – | CSc1ccccc1N1CCN(C(=O)c2cc(C)nn2-c2cccc(F)c2)CC1 [3/97]
29 | 2200 | 14 | – | Cc1cc(C(=O)N2CCN(c3ccccc3)CC2)n(-c2cccc(F)c2)n1 [3/89]
30 | 1260 | 1280 | – | COc1cc(OC)cc(N2CCN(C(=O)c3cc(/C=C/c4ccc(F)cc4)nn3-c3ccccc3)CC2)c1 [Example E87, [4-(3,5-Dimethoxyphenyl)piperazin-1-yl]-{5-[E-2-(4-fluorophenyl)vinyl]-2-phenyl-2H-pyrazol-3-yl}methanone]
31 | 500 | 4.1 | – | COc1cc(OC)cc(N2CCN(C(=O)c3cc(C=O)nn3-c3ccccc3)CC2)c1 [Example E100, 5-[4-(3,5-Dimethoxyphenyl)piperazine-1-carbonyl]-1-phenyl-1H-pyrazole-3-carboxaldehyde]
32 | 3000 | 238 | – | COc1cccc(-n2nc(C)cc2C(=O)N2CCN(c3cc(Cl)ccc3OC)CC2)c1 [3/5]
33 | 1100 | 145 | – | COc1cc(OC)cc(N2CCN(C(=O)c3cc(C(F)(F)F)nn3-c3cccc(C#N)c3)CC2)c1 [Example E56, 3-{5-[4-(3,5-Dimethoxyphenyl)piperazine-1-carbonyl]-3-trifluoromethylpyrazol-1-yl}benzonitrile]
34 | 3000 | 73 | – | COc1ccccc1N1CCN(C(=O)c2cc(C)nn2-c2cccc(C)c2)CC1 [3/45]
35 | – | 8740 | – | Cc1cc(C(=O)N2CCN(c3ccc(C(F)(F)F)cc3)CC2)n(-c2cccc(Cl)c2)n1 [3/126]
36 | – | 40 | – | COc1ccccc1N1CCN(C(=O)c2cc(C)nn2-c2cccc(Cl)c2)CC1 [3/120]
37 | < 25000 | – | – | COc1cc(OC)cc(N2CCN(C(=O)c3cc(C(O)c4ccccc4)nn3-c3ccccc3)CC2)c1 (centres unmarked) [Example E131, [4-(3,5-Dimethoxyphenyl)piperazin-1-yl][5-(hydroxyphenylmethyl)-2-phenyl-2H-pyrazol-3-yl]methanone]
38 | – | 312 | – | COc1cccc(-n2nc(C)cc2C(=O)N2CCN(c3ccc(C)c(C)c3)CC2)c1 [3/2]
39 | 800 | – | – | COC(=O)/C=C/c1cc(C(=O)N2CCN(c3cc(OC)cc(OC)c3)CC2)n(-c2ccccc2)n1 [Example E126, Methyl E-3-{5-[4-(3,5-dimethoxyphenyl)piperazine-1-carbonyl]-1-phenyl-1H-pyrazol-3-yl}acrylate]
40 | 4200 | – | – | COc1cccc(-n2nc(C)cc2C(=O)N2CCN(c3ccccc3SC)CC2)c1 [3/137]
41 | 2300 | – | – | COc1cc(OC)cc(N2CCN(C(=O)c3cc(C(C)O)nn3-c3ccccc3)CC2)c1 (centres unmarked) [Example E127, [4-(3,5-Dimethoxyphenyl)piperazin-1-yl][5-(1-hydroxyethyl)-2-phenyl-2H-pyrazol-3-yl]methanone]
42 | 17100 | – | – | COc1cc(OC)cc(N2CCN(C(=O)c3cc(Br)nn3-c3ccc(Br)cc3)CC2)c1 [Example E81, [5-Bromo-2-(4-bromophenyl)-2H-pyrazol-3-yl][4-(3,5-dimethoxyphenyl)-piperazin-1-yl]methanone]
43 | 1800 | – | – | COc1ccc(Cl)cc1N1CCN(C(=O)c2cc(C)nn2-c2cccc(Cl)c2)CC1 [3/127]

Source: patent publication US20050130989A1, “N-arylheteroaromatic products compositions containing them and use thereof” (Aventis Pharma S. A., priority 2003, published 2005)
